US20240208950A1, “COMPOSITIONS AND METHODS FOR TREATMENT OF CERVICAL AND OVARIAN CANCER” (SOUTH DAKOTA BOARD OF REGENTS, priority 2021, published 2024)

Tests used:
Assay type in all cases: cell-based, human
SiHa cells = assay: Cell invasion assay (Boyden chamber and xCELLigence), SiHa
From the text: (§1) FIGS. 8A and 8B show the effect of ORM-Br on invasion of CaSki (FIG. 8A) and SiHa (FIG. 8B) cell lines in Boyden chamber and xCELLigence assay. The images represent the invaded cells of control and ORM-Br-treated CaSki and SiHa cells as determined by Boyden Chamber kit. The magnification was at 20 for the images of FIGS. 8A and 8B.

CaSki cells [1] = assay: Cell invasion assay (Matrigel / Boyden chamber), CaSki; details: 24 hours
Procedure: as §1
Cell invasion assay was performed using BD Biocoat Matrigel Invasion Chambers (BD Biosciences, San Jose, CA, USA), as has been described in the art. Cells were treated with Br-ORM followed by incubation for 24 hours. Cells were fixed using methanol and were stained with crystal violet. […]
(§2) FIG. 14. […] Effect of Br-ORM on cell migration of cervical cancer cells as determined by agarose bead (FIG. 14A), scratch wound healing (FIG. 14B), and Boyden chamber assay (FIG. 14C). […] Closure of wound was determined and photographed using phase contrast microscopy. […] Bar graph represent the quantification of migrated CaSki cells of control and Br-ORM treated groups (FIG. 14C(ii)). […] Effect of Br-ORM treatment on invasion of CaSki cells as determined by a commercially available kit (BD Biosciences) as described in materials and methods. In brief, 24 hours post-treatment of Br-ORM, invaded cells were fixed, stained and counted. […] Bar graph represent the quantification of invaded CaSki cells of control and Br-ORM treated groups (FIG. 14D(ii)). […]

β-catenin in CaSki cells = assay: Western blot of β-catenin in nuclear and cytoplasmic extracts, CaSki; details: 15 μM, 24 hours
Procedure: In the Example shown at FIGS. 9A-9E, cells were subjected to treatment with 15 μM concentration of ORM-Br for 24 hours, nuclear extracts were prepared and western blot analysis were used to detect the protein levels of β-catenin. […] Western blots were reprobed with β-actin and Histone H3 antibodies as an internal control.
The nuclear and cytoplasmic lysates were prepared using respective buffers. The cell lysates (40 μg) were subjected to SDS-PAGE and blotted on PVDF membrane. The membranes were further blocked in 5% milk diluted in 1×TBST solution for 1 hour and incubated overnight in primary antibodies. The following day, the membranes were washed and incubated with secondary antibodies for 1 hour, washed again and developed on a UVP system using chemi-luminiscent reagents.
The EMT process in a cell is driven by growth factors or other signaling proteins such as Wnt/beta-catenin and extracellular matrix component that may stimulate cellular growth and migration. The effect of Br-ORM on β-catenin signaling was examined.
FIG. 15. Effect OF Br-ORM on β-catenin signaling and molecular docking of Br-ORM with β-catenin. Effect of Br-ORM on β-catenin distribution in cytoplasm and nucleus of CaSki and SiHa cells. […] Effect of Br-ORM on β-catenin localization in CaSki cells as determined by confocal microscopy (FIG. 15B(i)-(ii)). […]

CaSki cells [2] = assay: Cell migration (agarose bead, scratch wound, Boyden chamber), CaSki; details: 0 and 48 hours
Procedure: FIGS. 7B and 7D show the effect of ORM-Br on motility potential of CaSki cells (FIG. 7B) and SiHa cells (FIG. 7D) as predicted by agarose bead assay. The images shown in FIGS. 7A-7D represent the migratory cells (MC) in control and ORM-Br treated groups at 0 and 48 hours. In FIGS. 7B and 7D, AB means agarose beads. In FIGS. 7A-7D the images magnification were at 4.
Cell motility was performed by in vitro scratch wound assay. Briefly, cells were seeded in a 12-wells plate and after 80-90% confluency a standardized wound was made using a 200 μL micropipette tip. Cells were then treated with Br-ORM (10 μM) and photographed by phase contrast microscopy. […]
as §2

Q: How did the cell invasion (SiHa cells) turn out when `COc1ccc2c(c1)OC(C)(C)C(c1ccc(Br)cc1)C2c1ccc(OCCN2CCCC2)cc1` (stereo not shown) [ORM-Br] was run?
A: inhibits the invasion

Q: What about the cell invasion (CaSki cells [1]) of the same molecule?
A: inhibits the invasion

Q: And the cell invasion (CaSki cells [1]; listed as Br-ORM)?
A: effectively inhibited invasion

Q: What about the “nuclear β-catenin expression” value (β-catenin in CaSki cells) of the same molecule?
A: decrease in expression of nuclear β-catenin

Q: What about the “nuclear β-catenin expression” value (β-catenin in CaSki cells; listed as Br-ORM) of the same molecule?
A: inhibited nuclear β-catenin

Q: And the “cell migration / motility” value (CaSki cells [2])?
A: inhibits the migration

Q: What about the “cell migration / motility” value (CaSki cells [2]; listed as Br-ORM) of the same molecule?
A: dose dependent inhibition of migration abilities
